Experimental data reported in patent publication US20230058961A1, “SUBSTITUTED HETEROCYCLICS WITH THERAPEUTIC ACTIVITY IN HIV” (New York Blood Center, Inc., priority 2019, published 2023).

Assays:
[1] = tested on: TZM-bl cells; details: human, 3 days
Experimental: (§1) The anti-HIV-1 activity was assessed in a single-cycle assay by infecting TZM-bl indicator cells with the pseudovirus HIV-1 HXB2 according to established procedures (F. Curreli, Y. D. Kwon, D. S. Belov, R. R. Ramesh, A. V. Kurkin, A. Altieri, P. D. Kwong, A. K. Debnath, J Med Chem 2017, 60, 3124-3153; which is incorporated herein by reference for all that it teaches about the conduct and interpretation of the assay).
(§2) The cytotoxicity of the small polycyclic molecules in TZM-bl cells was determined by using the colorimetric method CellTiter 96® AQueous One Solution Cell Proliferation Assay (MTS) (Promega) following the manufacturer's instructions. Briefly, TZM-bl cells were platted in a 96-well tissue culture plate at 1×10^4/well and cultured at 37° C. Following overnight incubation, the cells were incubated with 100 μl of the compounds at graded concentrations and cultured for 3 days. The MTS reagent was added to the cells and incubated for 4 h at 37° C. The absorbance was recorded at 490 nm.

[2] = in vitro; details: human
Experimental: as §1, §2

[3] = tested on: pseudovirus HIV-1 HXB2; experiment: organism not typed; type: cell-based; details: anti-HIV-1 activity, single-cycle assay, TZM-bl cells, pseudovirus HIV-1 HXB2, read-out: IC50
[4] = Human immunodeficiency virus 1, HXB2, TZM-bl

Compound	CC50 [1]	CC50 at 3 days ([2]; CC50, cytotoxicity, TZM-bl cells, MTS, 3 days)	IC50 [3]	CC50 at 3 days ([2]; CC50)	IC50 [3, 4]
NCC(NC(=O)c1ccc(-c2ccc(Cl)cn2)[nH]1)c1ncc(CO)s1 (stereo not drawn) [Compound 1, N-(2-Amino-1-(5-(hydroxymethyl)thiazol-2-yl)ethyl)-5-(5-chloropyridin-2-yl)-1H-pyrrole-2-carboxamide]	144 ± 7.5 µM	> 100 µM	0.85 ± 0.1 µM		
Cc1cc(-c2ccc(Cl)cn2)[nH]c1C(=O)NC(CN)c1ncc(CO)s1 (stereo not drawn) [Compound 4, N-(2-Amino-1-(5-(hydroxymethyl)thiazol-2-yl)ethyl)-5-(5-chloropyridin-2-yl)-3-methyl-1H-pyrrole-2-carboxamide]	95 ± 3.6 µM		2.4 ± 0.2 µM		
NCC(NC(=O)c1ccc(-c2ccc(C(F)(F)F)cn2)[nH]1)c1ncc(CO)s1 (stereo not drawn) [Compound 6, N-(2-Amino-1-(5-(hydroxymethyl)thiazol-2-yl)ethyl)-5-(5-(trifluoromethyl)pyridin-2-yl)-1H-pyrrole-2-carboxamide]	> 122 µM		1.2 µM		
CC(C)(N)C(NC(=O)c1ccc(-c2ccc(C(F)(F)F)cn2)[nH]1)c1ncc(CO)s1 (stereo not drawn) [Compound 9, N-(2-Amino-1-(5-(hydroxymethyl)thiazol-2-yl)-2-methylpropyl)-5-(5-(trifluoromethyl)pyridin-2-yl)-1H-pyrrole-2-carboxamide]	74 ± 3.6 µM			< 50 µM	
CC(C)(N)C(NC(=O)c1ccc(-c2ccc(C(F)(F)F)cn2)[nH]1)c1ncc(CO)s1 (stereo not drawn) [Compound 10, N-(2-Amino-1-(5-(hydroxymethyl)thiazol-2-yl)-2-methylpropyl)-5-(5-(trifluoromethyl)pyridin-2-yl)-1H-pyrrole-2-carboxamide]	41 ± 2.5 µM		0.5 µM		
Cc1cc(-c2ccc(C(F)(F)F)cn2)[nH]c1C(=O)NC(c1ncc(CO)s1)C(C)(C)N (stereo not drawn) [Compound 12, N-(2-Amino-1-(5-(hydroxymethyl)thiazol-2-yl)-2-methylpropyl)-3-methyl-5-(5-(trifluoro-methyl)pyridin-2-yl)-1H-pyrrole-2-carboxamide]	37.5 ± 2.2 µM				
NCC(NC(=O)c1ccc(-c2ccc(C(F)(F)F)cn2)[nH]1)c1ncc(C(O)CO)s1 (stereo not drawn) [Compound 14, N-(2-Amino-1-(5-(1,2-dihydroxyethyl)thiazol-2-yl)ethyl)-5-(5-(trifluoromethyl)pyridin-2-yl)-1H-pyrrole-2-carboxamide]	> 113 µM		5.9 ± 0.6 µM		
NCC(NC(=O)c1ccc(-c2ccc(Cl)cn2)[nH]1)c1nc(CO)cs1 (stereo not drawn) [Compound 16, N-(2-Amino-1-(4-(hydroxymethyl)thiazol-2-yl)ethyl)-5-(5-chloropyridin-2-yl)-1H-pyrrole-2-carboxamide]	> 132 µM		1.7 ± 0.3 µM		
NCC(NC(=O)c1ccc(-c2ccc(F)cn2)[nH]1)c1nc(CO)cs1 (stereo not drawn) [Compound 18, N-(2-Amino-1-(4-(hydroxymethyl)thiazol-2-yl)ethyl)-5-(5-fluoropyridin-2-yl)-1H-pyrrole-2-carboxamide]	> 138 µM		> 11 µM		
Cc1ccc(-c2ccc(C(=O)NC(CN)c3nc(CO)cs3)[nH]2)nc1 (stereo not drawn) [Compound 20, N-(2-Amino-1-(4-(hydroxymethyl)thiazol-2-yl)ethyl)-5-(5-methylpyridin-2-yl)-1H-pyrrole-2-carboxamide]	> 140 µM		> 11 µM		> 10 µM
NCC(NC(=O)c1ccc(-c2ccc(C(F)(F)F)cn2)[nH]1)c1nc(CO)cs1 (stereo not drawn) [Compound 22, N-(2-Amino-1-(4-(hydroxymethyl)thiazol-2-yl)ethyl)-5-(5-(trifluoromethyl)pyridin-2-yl)-1H-pyrrole-2-carboxamide]	124 ± 7 µM				
CC(C)(N)C(NC(=O)c1ccc(-c2ccc(C(F)(F)F)cn2)[nH]1)c1nc(CO)cs1 (stereo not drawn) [Compound 24, N-(2-Amino-1-(4-(hydroxymethyl)thiazol-2-yl)-2-methylpropyl)-5-(5-(trifluoromethyl)pyridin-2-yl)-1H-pyrrole-2-carboxamide]	59 ± 10 µM		0.58 µM		
NCC(NC(=O)c1ccc(-c2ccc(C(F)(F)F)cn2)[nH]1)c1nc(CCO)cs1 (stereo not drawn) [Compound 26, N-(2-Amino-1-(4-(2-hydroxyethyl)thiazol-2-yl)ethyl)-5-(5-(trifluoromethyl)pyridin-2-yl)-1H-pyrrole-2-carboxamide]	91 ± 3.6 µM		0.76 µM		
NCC(NC(=O)c1ccc(-c2ccc(C(F)(F)F)cn2)[nH]1)c1nc(CCCO)cs1 (stereo not drawn) [Compound 27, N-(2-Amino-1-(4-(3-hydroxypropyl)thiazol-2-yl)ethyl)-5-(5-(trifluoromethyl)pyridin-2-yl)-1H-pyrrole-2-carboxamide]	> 114 µM		2.3 ± 0.3 µM	> 100 µM	
NCC(NC(=O)c1ccc(-c2ccc(C(F)(F)F)cn2)[nH]1)c1nc(CCCO)cs1 (stereo not drawn) [Compound 28, N-(2-Amino-1-(4-(3-hydroxypropyl)thiazol-2-yl)ethyl)-5-(5-(trifluoromethyl)pyridin-2-yl)-1H-pyrrole-2-carboxamide]	81.2 ± 1.3 µM		0.89 ± 0.12 µM		
NCC(NC(=O)c1ccc(-c2ccc(C(F)(F)F)cn2)[nH]1)c1nc(C(O)CO)cs1 (stereo not drawn) [Compound 30, N-(2-Amino-1-(4-(1,2-dihydroxyethyl)thiazol-2-yl)ethyl)-5-(5-(trifluoromethyl)pyridin-2-yl)-1H-pyrrole-2-carboxamide]	> 113 µM		3.8 ± 0.2 µM		

Compound	CC50 [1]	CC50 at 3 days ([2]; CC50, cytotoxicity, TZM-bl cells, MTS, 3 days)	IC50 [3]	CC50 at 3 days ([2]; CC50)	IC50 [3, 4]
NCC(NC(=O)c1ccc(-c2ccc(C(F)(F)F)cn2)[nH]1)c1nc(CO)c(CO)s1 (stereo not drawn) [Compound 36, N-(2-Amino-1-(4,5-bis(hydroxymethyl)thiazol-2-yl)ethyl)-5-(5-(trifluoromethyl)pyridin-2-yl)-1H-pyrrole-2-carboxamide]	> 113 µM		13 µM		
NCC(NC(=O)c1ccc(-c2ccc(C(F)(F)F)cn2)[nH]1)c1nccs1 (stereo not drawn) [Compound 38, N-(2-Amino-1-(thiazol-2-yl)ethyl)-5-(5-(trifluoromethyl)pyridin-2-yl)-1H-pyrrole-2-carboxamide]	93.6 ± 1.5 µM		1.2 ± 0.03 µM		
NCC(NC(=O)c1ccc(-c2ccc(Cl)nc2)[nH]1)c1nc(CO)cs1 (stereo not drawn) [Compound 40, N-(2-Amino-1-(4-(hydroxymethyl)thiazol-2-yl)ethyl)-5-(6-chloropyridin-3-yl)-1H-pyrrole-2-carboxamide]	> 132 µM		> 11 µM		
NCC(NC(=O)c1ccc(-c2ccc(C(F)(F)F)nc2)[nH]1)c1nc(CO)cs1 (stereo not drawn) [Compound 42, N-(2-Amino-1-(4-(hydroxymethyl)thiazol-2-yl)ethyl)-5-(6-(trifluoromethyl)pyridin-3-yl)-1H-pyrrole-2-carboxamide]	> 122 µM		11.9 ± 1.9 µM		
NCC(NC(=O)c1ccc(-c2ccc(C(F)(F)F)nn2)[nH]1)c1nc(CO)cs1 (stereo not drawn) [Compound 44, N-(2-Amino-1-(4-(hydroxymethyl)thiazol-2-yl)ethyl)-5-(6-(trifluoromethyl)pyridazin-3-yl)-1H-pyrrole-2-carboxamide]	> 73 µM		> 12 µM		
NCC(NC(=O)c1ccc(-c2ncc(Cl)cn2)[nH]1)c1nc(CO)cs1 (stereo not drawn) [Compound 46, N-(2-Amino-1-(4-(hydroxymethyl)thiazol-2-yl)ethyl)-5-(5-chloropyrimidin-2-yl)-1H-pyrrole-2-carboxamide]	> 66 µM		> 15.8 µM		
COc1cc(-c2ccc(C(=O)NC(CN)c3nc(CO)cs3)[nH]2)ccn1 (stereo not drawn) [Compound 48, N-(2-Amino-1-(4-(hydroxymethyl)thiazol-2-yl)ethyl)-5-(2-methoxypyridin-4-yl)-1H-pyrrole-2-carboxamide]	> 133 µM		> 11 µM		
NCC(NC(=O)c1ccc(-c2ccc(C(F)(F)F)cn2)[nH]1)c1cnc(CO)s1 (stereo not drawn) [Compound 58, N-(2-Amino-1-(2-(hydroxymethyl)thiazol-5-yl)ethyl)-5-(5-(trifluoromethyl)pyridin-2-yl)-1H-pyrrole-2-carboxamide]	> 122 µM		2.1 ± 0.2 µM		
NCC(NC(=O)c1ccc(-c2ccc(Cl)cn2)[nH]1)c1cnc(CO)s1 (stereo not drawn) [Compound 60, N-(2-Amino-1-(2-(hydroxymethyl)thiazol-5-yl)ethyl)-5-(5-chloropyridin-2-yl)-1H-pyrrole-2-carboxamide]	> 106 µM		3.6 ± 0.4 µM		
Cc1cc(-c2ccc(C(F)(F)F)cn2)[nH]c1C(=O)NC(CN)c1cnc(CO)s1 (stereo not drawn) [Compound 62, N-(2-Amino-1-(2-(hydroxymethyl)thiazol-5-yl)ethyl)-3-methyl-5-(5-(trifluoromethyl)pyridin-2-yl)-1H-pyrrole-2-carboxamide]	63.8 ± 2.1 µM		1.9 ± 0.25 µM		
Cc1cc(-c2ccc(C(F)(F)F)cn2)[nH]c1C(=O)NC(CN)c1csc(CO)n1 (stereo not drawn) [Compound 64, N-(2-Amino-1-(2-(hydroxymethyl)thiazol-4-yl)ethyl)-3-methyl-5-(5-(trifluoromethyl)pyridin-2-yl)-1H-pyrrole-2-carboxamide]	47.8 ± 5.9 µM		1.3 ± 0.2 µM		
NCC(NC(=O)c1ccc(-c2ccc(C(F)(F)F)cn2)[nH]1)c1csc(CO)n1 (stereo not drawn) [Compound 66, N-(2-Amino-1-(2-(hydroxymethyl)thiazol-4-yl)ethyl)-5-(5-(trifluoromethyl)pyridin-2-yl)-1H-pyrrole-2-carboxamide]	85.1 ± 2.5 µM		1.7 ± 0.2 µM		
NCC(NC(=O)c1ccc(-c2ccc(Cl)cn2)[nH]1)c1csc(CO)n1 (stereo not drawn) [Compound 68, N-(2-Amino-1-(2-(hydroxymethyl)thiazol-4-yl)ethyl)-5-(5-chloropyridin-2-yl)-1H-pyrrole-2-carboxamide]	> 106 µM				8.2 ± 2.1 µM
NCC(NC(=O)c1ccc(-c2ccc(C(F)(F)F)cn2)[nH]1)c1csc(C(=O)NCCO)n1 (stereo not drawn) [Compound 69, 4-(2-Amino-1-(5-(5-(trifluoromethyl)pyridin-2-yl)-1H-pyrrole-2-carboxamido)ethyl)-N-(2-hydroxyethyl)thiazole-2-carboxamide]				> 107 µM	> 21.3 µM
NCC(NC(=O)c1ccc(-c2ccc(C(F)(F)F)cn2)[nH]1)c1csc(C(=O)NCCO)n1 (stereo not drawn) [Compound 70, 4-(2-Amino-1-(5-(5-(trifluoromethyl)pyridin-2-yl)-1H-pyrrole-2-carboxamido)ethyl)-N-(2-hydroxyethyl)thiazole-2-carboxamide]	> 107 µM		> 21.3 µM		
